The test system of assay [1] is INS-1E cells. Description: Insulin secretion from INS-1E cells (Example 18). The note with it: 100 nM peptide, high (16.7 mM) glucose buffer, 60 min, vs un-supplemented buffer. Type of assay: cell-based, rat. The procedure: To investigate the stimulatory effect of FOL-056 on insulin secretion we used INS-1E cells. The cells were seeded overnight and washed with PBS before pre-incubation for 60 min at 37° C. in Krebs-Ringer bicarbonate buffer (KRB), pH 7.4, supplemented with 10 mM HEPES, 0.1% bovine serum albumin. Following pre-incubation, the buffer was discarded and the INS-1E cells were incubated in fresh KRB buffer supplemented with 10 mM HEPES, 0.1% bovine serum albumin with or without peptide FOL-056. For comparative purposes cells treated with FOL-014 was included. Following 60 min incubation at 37.C, the buffer was removed and frozen for subsequent insulin assay.

Assay [2] concerns INS-1E cells. Description: Insulin secreting capacity after 72 hours of glucotoxic conditions (Examples 19, 22). It counts as cell-based, rat. The note with it: Example 19, 20 mM glucose 72 hours with peptide, then 16.7 mM glucose 1 h. How it is done:
To investigate the β-cell protective effect of FOL-056, we subjected INS-1E to cytotoxic levels of glucose for 72 hours. Rat INS-1E cells were seeded in 96-well plates (2×10^3 cells/well) in cRPMI medium. Following 72 hours of incubation, the medium was changed to RPMI containing 20 mM glucose with or without FOL-056 or FOL-014 and were cultured at 37° C. during an additional 72 hours to induce glucotoxicity. RPMI containing 5 mM glucose was included as a low glucose control. Following 72 hours, the medium was removed and the INS-1E cells were equilibrated in Krebs-Ringer bicarbonate buffer (KREB), pH 7.4, (supplemented with 10 mM HEPES, 0.1% bovine serum albumin and 2.8 mM glucose) for 2 hours. After equilibration, the buffer was changed and the INS-1E cells were incubated in KREBs containing 16.7 mM glucose […] during 1 h. Immediately after incubation, an aliquot of the buffer was removed and frozen for subsequent assay of insulin content.
To investigate the β-cell protective effect of several novel peptide fragments derived from FOL-005 and FOL-014, INS-1 cells were subjected to cytotoxic levels of glucose for 72 hours. […] In order to correct for the variance between experiments, all values were normalized to, and expressed as percentage of the average value of the high glucose control in the individual experiments. […]

In assay [3] the test system is human pancreatic β-cell line 1.2B4. Put plainly: Insulin secretion from 1.2B4 human β-cells. It counts as cell-based. The note with it: 100 nM peptide, 16.7 mM glucose, 60 minutes. The procedure: In order to test the effect of FOL-014 and FOL-056 in human cells, the human pancreatic β-cell line 1.2B4 were cultured at 37° C. and 5% CO2 in RPMI 1640 supplemented with 10% fetal bovine serum, 50 IU/mL penicillin, 50 mg/L streptomycin, 1 mM L-glutamine. 1.2B4 cells were seeded in 24-well plates in RPMI medium and following overnight incubation, the medium was removed before pre-incubation for 40 min at 37° C. in Krebs-Ringer bicarbonate buffer, pH 7.4, supplemented with 10 mM HEPES, 0.1% bovine serum albumin and 1.0 mM glucose. Following pre-incubation, the buffer was exchanged with fresh Krebs-Ringer buffer as described above and supplemented with specific glucose concentrations, 1 mM or 16.7 mM. FOL-014, FOL-056 or Liraglutide was added at a concentration of 100 nM in the presence of 16.7 mM glucose. Immediately after 60 minutes incubation at 37° C., an aliquot of the buffer was removed and frozen for subsequent insulin ELISA assay. (FIG. 18)

In another assay the test system is human islets. Description: Insulin secretion from human pancreatic islets. It counts as cell-based. The note with it: 1 nM peptide, 16.7 mM glucose, 60 minutes, two donors. How it is done:
To investigate the functionality of FOL-056 in human primary tissue, the pancreatic islets from two non-diabetic human donors were used. Islets were picked, aliquoted in groups of 12 and incubated at 37° C. in 1 ml Krebs-Ringer bicarbonate buffer, pH 7.4, supplemented with 10 mM HEPES, 0.1% bovine serum albumin and 1.0 mM glucose. Following pre-incubation, the buffer was exchanged with fresh Krebs-Ringer buffer as described above and supplemented with specific glucose concentrations (1 mM or 16.7 mM), FOL-056 peptides (1 nM) or Liraglutide (100 nM). Immediately after 60 minutes incubation at 37° C., an aliquot of the buffer was removed and frozen for subsequent insulin ELISA assay. (FIG. 19)

For assay [4], the system named is diet induced obese c57BI6 mice. Put plainly: Acute insulin response in diet induced obese mice after long term dosing. It counts as in vivo, mouse. The note with it: 300 nmol/kg subcutaneously 5 days per week, 12 weeks high fat diet; 1 minute after 1 g/kg iv glucose; P=0.01. How it is done: Materials and methods: To investigate the effects of FOL-056 in vivo in a high fat diet model, wild type c57BI6 mice were subcutaneously dosed 5 days per week with 300 nmol/kg FOL-056, while being fed high fat diet for 12 weeks. Control animals were dosed with PBS.
In diet induced obese c57BI6 mice, untreated or dosed with FOL-056, the fasting plasma insulin levels were measured before as well as 1 minute after an intravenous glucose injection of 1 g/kg. The insulin value measured before the glucose injection was subtracted from the value measured after the injection for each individual mouse in order to obtain the acute insulin response (AIR). (FIG. 20)

The test system of a further assay is db/db mice. Put plainly: HbA1c in db/db mice after 4 weeks of dosing. It counts as in vivo, mouse. Conditions: 100 nmol/kg subcutaneously, 5 days per week for 4 weeks, vs PBS control. How it is done: To investigate the long-term effect of FOL-014 and FOL-056 in diabetic mice, db/db mice were dosed with 100 nmol/kg peptide subcutaneously, 5 days per week for 4 weeks. Control mice were injected with PBS. After 4 weeks of treatment the mice were terminated and 25 μl whole blood was immediately frozen for subsequent HbA1c analysis. (FIG. 21).

Entries after “also recorded” stand apart in the source; their conditions may differ.

Consider “AEIDSIELSYGIK (MISC_FEATURE - peptide) [FOL-056]”, for which the figures for the insulin secretion result (in the assay with INS-1E cells [1]; in assay [3]; in the assay with human islets) were “secrete significantly more insulin compared to unstimulated control cells; also recorded: significantly increased the insulin secretion as compared with cells treated with an un-supplemented high glucose buffer”, “increase the insulin secretion capacity in 1.2B4 human β-cells; also recorded: significantly increased the insulin secretion as compared with cells treated with an un-supplemented high glucose buffer” and “potentiates the capacity of primary human pancreatic islets to secrete insulin as a response to high glucose levels; also recorded: significantly increased the insulin secretion as compared with cells treated with an un-supplemented high glucose buffer”, respectively. For the same sequence, in the assay with INS-1E cells [2], the “insulin secreting ability after glucotoxic conditions” value is “preserves β-cell function as shown by retained glucose induced insulin secretion; also recorded: abolished the glucotoxic effects and retained insulin release at the same level as from β-cells in the low (5 mM) glucose treatment group”. In addition, the “acute insulin response (AIR)” value in assay [4] is on record as “significantly improved; also recorded: significantly higher”. Moreover, in the assay with db/db mice, the HbA1c result is “reduce the HbA1c in db/db mice as compared with the untreated control group; also recorded: significantly lower HbA1c”.

Values taken from patent publication US20240327459A1, “PEPTIDE FRAGMENTS FOR TREATMENT OF DIABETES” (Follicum AB, priority 2018, published 2024).
